Like-named read-outs stand apart in the source and are kept apart here.
Tests used:
c-Src(1-530) = c-Src(1-530) (Homo sapiens (Human), UniProt P12931); experiment: Kinase inhibition assay (KinaseProfiler, 33P-ATP); conditions: c-Src(1-530); ATP at Km
MDA-MB-435 = experiment: Cell proliferation inhibition assay (MTT); format: cell-based, human; conditions: Homo sapiens, read-out: Proliferative inhibitory activity MDA-MB-435 (IC50 class)
MDA-MB-231 = experiment: Cell proliferation inhibition assay (MTT); format: cell-based, human; conditions: Homo sapiens, read-out: Proliferative inhibitory activity MDA-MB-231 (IC50 class)
Protocol: The remaining cell lines were cultured in DMEM complete medium containing 10% fetal bovine serum (MV4-11 cells 20%), 100 U/ml penicillin, 100 μg/mL streptomycin at 5% CO2, and 37° C.
The cells were seeded in 96-well plates with 200 μL of cell suspension per well and incubated overnight in a cell culture medium with a cell concentration of 1˜2×10^4 cells/mL. The next day, the supernatant was discarded (the suspension cell was centrifuged before it) and the cells were treated with gradient concentrations of the test compound, respectively. At the same time, the drug-free negative control group and the equal volume of solvent control group, DMSO concentration of 0.1%, each dose group set up three wells, 37° C., 5% CO2 conditions. After 72 hours, add 20 μL of MTT reagent at a concentration of 5 mg/mL per well. After incubation for 2-4 h, the supernatant was discarded and 150 μL of DMSO was added to each well. […] Determine the absorbance (A) value (λ=570 nm, A value is proportional to the number of living cells), whichever is the average. […] The experiment was repeated at least 3 times. Experimental data were expressed as mean, data statistics using t test, P<0.05 for the difference was statistically significant. The inhibitory effects of the following compounds on cell proliferation were expressed as IC50 or inhibition rates.

Chain of c-Src(1-530) (P12931 whole entry, looked up): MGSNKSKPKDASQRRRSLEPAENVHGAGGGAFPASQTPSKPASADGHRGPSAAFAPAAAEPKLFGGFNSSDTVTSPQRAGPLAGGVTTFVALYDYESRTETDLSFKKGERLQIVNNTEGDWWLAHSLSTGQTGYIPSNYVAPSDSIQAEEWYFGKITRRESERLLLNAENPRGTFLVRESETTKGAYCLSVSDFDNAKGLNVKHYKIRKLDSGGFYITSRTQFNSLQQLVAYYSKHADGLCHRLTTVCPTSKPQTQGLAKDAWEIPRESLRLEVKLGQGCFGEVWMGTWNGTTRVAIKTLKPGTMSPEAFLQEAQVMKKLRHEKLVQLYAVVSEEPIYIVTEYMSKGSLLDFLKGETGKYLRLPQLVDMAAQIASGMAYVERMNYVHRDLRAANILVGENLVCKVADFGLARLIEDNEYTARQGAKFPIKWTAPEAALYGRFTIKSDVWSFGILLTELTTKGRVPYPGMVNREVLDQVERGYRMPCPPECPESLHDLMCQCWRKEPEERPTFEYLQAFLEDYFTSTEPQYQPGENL

Compound: COCn1nc(C#Cc2cc(C(=O)Nc3ccc(CN4CCN(C)CC4)c(C(F)(F)F)c3)ccc2C)c2c(N)ncnc21 [Compound 19]
- IC50 (c-Src(1-530)): 8 nM
- IC50 (MDA-MB-435; MDA-MB-435, MTT, 72 hours): < 100 nM
- IC50 (MDA-MB-231; MDA-MB-231, MTT, 72 hours): < 100 nM

Compound: CCn1nc(C#Cc2cc(C(=O)Nc3ccc(CN4CCN(C)CC4)c(C(F)(F)F)c3)ccc2OC)c2c(N)ncnc21 [Compound 24]
- IC50 (c-Src(1-530)): 59 nM
- IC50 (MDA-MB-435; MDA-MB-435, MTT, 72 hours): > 1000 nM
- IC50 (MDA-MB-231; MDA-MB-231, MTT, 72 hours): 100 to 500 nM

Compound: CCc1ccc(C(=O)Nc2ccc(CN3CCN(C)CC3)c(C(F)(F)F)c2)cc1C#Cc1nn(CC)c2ncnc(N)c12 [Compound 10]
- IC50 (c-Src(1-530)): 83 nM
- IC50 (MDA-MB-435; MDA-MB-435, MTT, 72 hours): > 1000 nM
- IC50 (MDA-MB-231; MDA-MB-231, MTT, 72 hours): 100 to 500 nM

Compound: Cc1ccc(C(=O)Nc2cccc(C(F)(F)F)c2)cc1C#Cc1nn(C(C)C)c2ncnc(N)c12 [Compound 14]
- IC50 (c-Src(1-530)): 3 nM
- IC50 (MDA-MB-435; MDA-MB-435, MTT, 72 hours): > 1000 nM
- IC50 (MDA-MB-231; MDA-MB-231, MTT, 72 hours): 100 to 500 nM

Compound: CC(C)n1nc(C#Cc2cccc(C(=O)Nc3ccc(CN4CCN(C)CC4)c(C(F)(F)F)c3)c2)c2c(N)ncnc21 [Compound 11]
- IC50 (c-Src(1-530)): 10 nM
- IC50 (MDA-MB-435; MDA-MB-435, MTT, 72 hours): < 100 nM
- IC50 (MDA-MB-231; MDA-MB-231, MTT, 72 hours): 500 to 1000 nM

Compound: CCn1nc(C#Cc2cc(NC(=O)c3ccc(CN4CCN(C)CC4)c(C(F)(F)F)c3)ccc2C)c2c(N)ncnc21 [Compound 102]
- IC50 (MDA-MB-435; MDA-MB-435, MTT, 72 hours): < 100 nM
- IC50 (MDA-MB-231; MDA-MB-231, MTT, 72 hours): < 100 nM

Compound: Cc1ccc(NC(=O)c2ccc(Cl)c(C(F)(F)F)c2)cc1C#Cc1nn(CC2CCN(S(C)(=O)=O)C2)c2ncnc(N)c12 (stereo not drawn) [Compound 76]
- IC50 (MDA-MB-435; MDA-MB-435, MTT, 72 hours): 100 to 500 nM
- IC50 (MDA-MB-231; MDA-MB-231, MTT, 72 hours): < 100 nM

Compound: Cc1ccc(C(=O)Nc2cccc(C(F)(F)F)c2)cc1C#Cc1nn(C2CCN(C)CC2)c2ncnc(N)c12 [Compound 32]
- IC50 (MDA-MB-435; MDA-MB-435, MTT, 72 hours): 100 to 500 nM
- IC50 (MDA-MB-231; MDA-MB-231, MTT, 72 hours): < 100 nM

Compound: Cc1ccc(C(=O)Nc2ccc(CN3CCN(C)CC3)c(C(F)(F)F)c2)cc1C#Cc1nn([C@@H]2CCOC2)c2ncnc(N)c12 [Compound 20]
- IC50 (MDA-MB-435; MDA-MB-435, 72 h): < 100 nM
- IC50 (MDA-MB-231; MDA-MB-231, 72 h): < 100 nM

Compound: COc1ccc(C(=O)Nc2ccc(C)c(C#Cc3nn(C4CCN(C)CC4)c4ncnc(N)c34)c2)cc1 [Compound 43]
- IC50 (MDA-MB-435; MDA-MB-435, MTT, 72 hours): > 1000 nM
- IC50 (MDA-MB-231; MDA-MB-231, MTT, 72 hours): > 1000 nM

Compound: Cc1ccc(NC(=O)c2ccnc(C(F)(F)F)c2)cc1C#Cc1nn(C2CCN(C)CC2)c2ncnc(N)c12 [Compound 59]
- IC50 (MDA-MB-435; MDA-MB-435, MTT, 72 hours): 100 to 500 nM
- IC50 (MDA-MB-231; MDA-MB-231, MTT, 72 hours): 100 to 500 nM

Compound: Cc1ccc(NC(=O)c2ccc(Cl)c(C(F)(F)F)c2)cc1C#Cc1nn([C@@H]2CCN(C)C2)c2ncnc(N)c12 [Compound 85]
- IC50 (MDA-MB-435; MDA-MB-435, MTT, 72 hours): > 1000 nM
- IC50 (MDA-MB-231; MDA-MB-231, MTT, 72 hours): < 100 nM

Compound: Cc1ccc(NC(=O)c2cc(C(F)(F)F)cc(C(F)(F)F)c2)cc1C#Cc1nn(C2CCN(C)CC2)c2ncnc(N)c12 [Compound 54]
- IC50 (MDA-MB-435; MDA-MB-435, MTT, 72 hours): < 100 nM
- IC50 (MDA-MB-231; MDA-MB-231, MTT, 72 hours): < 100 nM

Compound: Cc1ccc(NC(=O)c2ccc(Cl)c(C(F)(F)F)c2)cc1C#Cc1nn(C2CCCN(C(=O)[C@H](C)O)C2)c2ncnc(N)c12 (stereo partly drawn) [Compound 86]
- IC50 (MDA-MB-435; MDA-MB-435, MTT, 72 hours): > 1000 nM
- IC50 (MDA-MB-231; MDA-MB-231, MTT, 72 hours): < 100 nM

Compound: Cc1ccc(NC(=O)c2nc(C(C)(C)C)cs2)cc1C#Cc1nn(CC2CCN(C)CC2)c2ncnc(N)c12 [Compound 96]
- IC50 (MDA-MB-435; MDA-MB-435, MTT, 72 hours): 100 to 500 nM
- IC50 (MDA-MB-231; MDA-MB-231, MTT, 72 hours): 100 to 500 nM

Compound: Cc1ccc(NC(=O)c2ccc(Cl)c(Cl)c2)cc1C#Cc1nn(C2CCN(C)CC2)c2ncnc(N)c12 [Compound 60]
- IC50 (MDA-MB-435; MDA-MB-435, MTT, 72 hours): 500 to 1000 nM
- IC50 (MDA-MB-231; MDA-MB-231, MTT, 72 hours): 100 to 500 nM

Compound: Cc1ccc(NC(=O)c2ccc(Cl)c(C(F)(F)F)c2)cc1C#Cc1nn(C[C@@H](C)CO)c2ncnc(N)c12 [Compound 82]
- IC50 (MDA-MB-435; MDA-MB-435, MTT, 72 hours): 100 to 500 nM
- IC50 (MDA-MB-231; MDA-MB-231, MTT, 72 hours): < 100 nM

Compound: Cc1ccc(NC(=O)c2nc(C(C)(C)C)cs2)cc1C#Cc1nn(C[C@@H](C)CO)c2ncnc(N)c12 [Compound 95]
- IC50 (MDA-MB-435; MDA-MB-435, MTT, 72 hours): < 100 nM
- IC50 (MDA-MB-231; MDA-MB-231, MTT, 72 hours): 100 to 500 nM

Compound: Cc1ccc(NC(=O)c2cc(C(F)(F)F)cc(Cl)c2F)cc1C#Cc1nn(C2CCN(C)CC2)c2ncnc(N)c12 [Compound 56]
- IC50 (MDA-MB-435; MDA-MB-435, MTT, 72 hours): > 1000 nM
- IC50 (MDA-MB-231; MDA-MB-231, MTT, 72 hours): > 1000 nM

Compound: Cc1ccc(NC(=O)c2cccc(C(F)(F)F)c2F)cc1C#Cc1nn(C2CCN(C)CC2)c2ncnc(N)c12 [Compound 48]
- IC50 (MDA-MB-435; MDA-MB-435, MTT, 72 hours): 100 to 500 nM
- IC50 (MDA-MB-231; MDA-MB-231, MTT, 72 hours): 100 to 500 nM
